Data as given in patent publication US6281222A (Inotek Corporation, priority 2000, dated 2001).
“Also recorded” adds a separate entry of the source.

How the values were obtained:
[1] = system: acetaminophen-induced increases in ALT plasma levels; experiment: Serum/plasma ALT levels with different frequencies and starting points of AHPP or NAC treatment (FIG. 2); type: in vivo, rats
Description: The effectiveness of AHPP when given at various frequencies and starting points of administration was also examined. […] Serum ALT levels in rats were then examined
The bars from the left to the right represent the following groups: […]

[2] = system: acetaminophen-induced liver injury; experiment: Plasma ALT and AST release after acetaminophen, with simultaneous AHPP treatment (FIGS. 1A and 1B); type: in vivo, rats; details: AHPP 50 mg/kg q8h per gavage, simultaneous with acetaminophen 350 mg/kg i.p.
Procedure: The effect of AHPP on the release of ALT and AST in plasma was examined. […] The effect of AHPP is measured by the release of AST and ALT in rats.

[3] = system: liver tissues (centrilobular injury); experiment: Histological injury score in the liver; type: in vivo, rats
Procedure: Scoring was performed by two independent investigators who were blinded to the treatment regimen. The following grading system was used: 0--normal liver, no signs of injury; 1--rare areas of centrilobular injury; 2--moderate injury involving many centrilobular areas; 3--extensive centrilobular necrosis; 4--massive hepatic injury involving all centrilobular areas and beyond.

[4] = system: acetaminophen-intoxicated mice; experiment: Survival after severe acetaminophen intoxication, fasted 36 hours (FIG. 3); type: in vivo
[5] = system: acetaminophen-induced liver injury; experiment: Minimally effective AHPP dose: reduction in serum ALT; type: in vivo
[6] = system: acetaminophen-induced mortality; experiment: Dose response survival study; type: in vivo; details: for protective effect / survival: 24 hours; for survival rate: vehicle 25%; for survival: vehicle 0%
Procedure: The minimally effective dose of AHPP was examined. Criteria for an effective dose included ability to suppress liver injury and protect against acetaminophen-induced mortality. […] Although the effect was only partial, ALT levels were reduced by 56±16% (n=8; p<0.05).
In order to validate the significance of the above mentioned reductions in serum transaminases, a dose response survival study was also performed. […] Survival rate was 25% in the vehicle treated group, and improved to 87% with 3 mg/kg and 10 mg/kg q8h doses. […] For the survival studies, n=8-10 animals per group. […] The effective dose range lays between 10 and 50 mg/kg of AHPP q8h per enteral gavage.

[7] = Preliminary toxicity study, enteral administration; type: in vivo, mice; details: enteral gavage up to 1000 mg/kg (300, 500, 1000 mg/kg), 24 h, n=8 per group
Procedure: Preliminary toxicity studies were performed with AHPP to estimate the expected therapeutic ratio of the compound.

[8] = Survival after severe acetaminophen intoxication, fasted 36 hours (FIG. 3); type: in vivo, mice; details: mouse, in vivo, ip; 350 mg/kg i.p., fasted 36 hours, by 8 hours
[9] = 50 mg/kg enterally, 4 h post-acetaminophen

## CC(=O)N[C@@H](CS)C(=O)O [N-acetyl-cysteine, reference compound]
[1]; 50 mg/kg enterally at time of acetaminophen injection
  protective effect, co-treatment (0 h): significantly protective
[1]; [9]
  degree of liver injury, 4 h post-treatment: exacerbated the degree of liver injury
  protective effect, 4 h post-treatment: lost its protective effect

## Nc1nc(O)nc2[nH]ncc12 [AHPP, 4-Amino-6-hydroxypyrazolo[3,4-d]pyrimidine]
[2]
  degree of liver injury, as assessed by release of ALT and AST: significantly reduced the degree of liver injury
[3]; AHPP+Acetaminophen, scale 0 (normal liver) to 4 (massive hepatic injury), p<0.05
  median histological injury score: 2.1
[3]; response to AHPP treatment, in words
  histological injury in the liver: significant attenuation of the histological injury
[1]; 50 mg/kg enteral gavage at 8 h and 16 h post-acetaminophen
  protective effect, 8 h+16 h: significant protective effects
[1]; 50 mg/kg enterally, 4 h post-acetaminophen, no supplemental doses
  effect on ALT levels, 4 h post-treatment: reduced
[1]; concurrent with, or subsequent to acetaminophen
  ALT levels vs acetaminophen alone: lowered ALT levels
[1]; inferred from efficacy via gavage, 24 h protocol
  enteral uptake: sufficient enteral uptake
[1]; start close in time to acetaminophen, followed by additional treatments at 8 h interval
  effect of timing and frequency of administration: most effective
[1]; summary of data
  hepatoprotection, conclusion: advantageously compares to NAC as a hepatoprotective agent; also recorded: effective via an enteral delivery route; also recorded: effective both as a co-treatment and in delayed post-treatment regimens
[4]; AHPP 30 mg/kg q8h gavage, simultaneous with acetaminophen 350 mg/kg i.p.
  protection / survival: markedly protective; also recorded: dramatically prolonged survival
[5]; 3 mg/kg q8h per enteral gavage
  protective effect: significant protection
[5]; 3 mg/kg q8h per enteral gavage, n=8, p<0.05
  reduction in ALT levels: 56±16%
[5]; 10 mg/kg q8h per enteral gavage
  efficacy relative to 50 mg/kg dose: equivalent in efficacy to the 50 mg/kg dose
[5]; 10 mg/kg q8h per enteral gavage, n=7, p<0.01
  reduction in serum ALT concentration: 89%
[6]; 3 mg/kg q8h
  protective effect: lost its protective effect
[6]; 3 mg/kg q8h enteral gavage, 8 hours
  survival rate: 87%
[6]; 3 mg/kg q8h enteral gavage
  survival: 0%
[6]; 10 mg/kg q8h
  protective effect: maintained its protective effect
[6]; 10 mg/kg q8h enteral gavage, 8 hours
  survival rate: 87%
[6]; 10 mg/kg q8h enteral gavage
  survival: 63%
[6]; 3 and 10 mg/kg q8h enteral gavage, 8 hours
  protection against mortality: significantly protected against mortality
[7]
  mortality or behavioral or histological alterations: did not result in mortality or behavioral or histological alterations

## CC(=O)Nc1ccc(O)cc1 [acetaminophen, reference compound]
[8]
  mortality at 8 h: 75%
[4]; 350 mg/kg i.p., fasted 36 hours
  onset of lethality: 2 h
